In ChEMBL document CHEMBL5046248, “New Pqs Quorum Sensing System Inhibitor as an Antibacterial Synergist against Multidrug-Resistant Pseudomonas aeruginosa” (J Med Chem, 2022):
Active and inactive are the calls of the source. The calls are words filed in the database; no cut-off is given here.

Columns and labels:
[1] = system: Pseudomonas aeruginosa; assay: Antibacterial activity against Pseudomonas aeruginosa PAO1 assessed as inhibition of biofilm formation for 24 hrs by crystal violet staining based assay; format: functional, organism-based; conditions: PAO1, 24 h
[2] = system: Pseudomonas aeruginosa; assay: Antibiofilm activity against Pseudomonas aeruginosa PAO1 assessed as effect on pyochelin production fluorescence at 1.25 to 20 uM by fluorescence assay; format: functional, organism-based; conditions: dose 1.25-20 µM

| SMILES | IC50 [1] | Activity [2] |
| --- | --- | --- |
| CCCn1c(C)cc(=O)c(O)c1CNS(=O)(=O)c1ccc(OC)cc1 | 59.6 µM |  |
| CCn1c(C)cc(=O)c(O)c1CNC1CCCC1 | > 100 µM |  |
| CCCn1c(C)cc(=O)c(O)c1CNC(=O)c1ccc(OC)cc1 | 5.2 µM |  |
| CC[C@H]1OC(=O)[C@H](C)[C@@H](O[C@H]2C[C@@](C)(OC)[C@@H](O)[C@H](C)O2)[C@H](C)[C@@H](O[C@@H]2O[C@H](C)C[C@H](N(C)C)[C@H]2O)[C@](C)(O)C[C@@H](C)CN(C)[C@H](C)[C@@H](O)[C@]1(C)O [AZITHROMYCIN] | 7.1 µM |  |
| CCCCCCC(=O)NCc1c(O)c(=O)cc(C)n1CC | > 100 µM |  |
| CCCn1c(C)cc(=O)c(O)c1CNC(=O)c1cccc(OC)c1 | 56.5 µM |  |
| CCCCn1c(C)cc(=O)c(O)c1CNc1ccc(OC)cc1 | 45.4 µM |  |
| CCCCCCC(=O)NCc1cc(=O)c(O)cn1C | > 100 µM |  |
| CCCn1c(C)cc(=O)c(O)c1CNC(=O)c1ccccc1OC | 62.9 µM |  |
| CCCn1c(C)cc(=O)c(O)c1CNc1ccc(OC)cc1 | 55.5 µM |  |
| CCCn1c(C)cc(=O)c(O)c1CNC(=O)Cc1ccc(F)cc1 | > 100 µM |  |
| CCCCn1c(C)cc(=O)c(O)c1CNS(=O)(=O)c1ccc(OC)cc1 | 40.4 µM |  |
| O=C(NCc1cc(=O)c(O)cn1O)c1ccccc1 | > 100 µM |  |
| CCCCCn1c(C)cc(=O)c(O)c1CNC(=O)c1ccc(OC)cc1 | 52.5 µM |  |
| CCn1c(C)cc(=O)c(O)c1CNC(=O)c1ccc(OC)cc1 | > 100 µM |  |
| CCCCCCCC(=O)NCc1cc(=O)c(O)cn1O | > 100 µM |  |
| CCCCn1c(C)cc(=O)c(O)c1CNC1CCCC1 | > 100 µM |  |
| CCCCn1c(C)cc(=O)c(O)c1CNC(=O)c1cccc(OC)c1 | 31.1 µM |  |
| CCn1c(C)cc(=O)c(O)c1CNS(=O)(=O)c1ccc(OC)cc1 | > 100 µM |  |
| CCCCCC(=O)NCc1cc(=O)c(O)cn1C | > 100 µM |  |
| Cc1c(O)c(=O)ccn1C |  | inactive |
| CCn1c(C)cc(=O)c(O)c1CNc1ccc(OC)cc1 | > 100 µM |  |
| CCCCCCC(=O)NCc1c(O)c(=O)cc(C)n1CCCC | > 100 µM |  |
